Values quoted from earlier work in patent US10456366B2, “Composition and methods for tissue regeneration” (Chiou Consulting, Inc., priority 2017, dated 2019).

Tests used:
rats = conditions: water containing 10% of PG, two years
dogs = conditions: food containing 8% of PG, two years

Q: Which results are given for `CC(O)CO` (centres unmarked) [PG, propylene glycol]?
A: adverse effects on feeding (rats): no adverse effects; adverse effects on feeding (dogs): no adverse effects
